Measurements published in patent US20110182830A1, “INHALATION DRUG PRODUCTS, SYSTEMS AND USES” (Schering Corporation, priority 2008, published 2011).

What was measured:
[1] = Andersen Cascade Impactor (ACI) with USP throat, aerodynamic particle size distribution, pMDI alone vs pMDI with chamber, continuous flow 28.3 L/min; type: physicochemical; details: for reduction in FPD (μg) as compared to the pMDI alone: pMDI with OPTICHAMBER
Method: Pressurized MDI products were tested alone and as an inhalation system/drug product which included a pMDI in combination with one chamber such as the A[…]-STAT Plus™ (volume=148 mL), A[…]® (volume=[…]), VORTEX® AND OPTICHAMBER®.
An Andersen Cascade Impactor (ACI) with USP throat was used to measure aerodynamic particle size distribution. Two impactor configurations were used for the two flow rates. Plates 0 through 7 were used for sampling at 28.3 L/min; plates—1 through 6 were used for sampling at 60 L/min. The effective cut off diameters for the plates in each configuration were provided by the manufacturer. Total delivered dose values report the total mass of active ingredient recovered from the impactor (throat, plates and filter). Fine particle dose values report the total mass of active ingredient with aerodynamic diameter less than 4.7 μm.
FIGS. 1 and 2 show throat, fine particle dose and total delivered dose recoveries for both active ingredients, as measured by ACI under continuous flow at 28.3 L/min. Recoveries are shown for different spacer devices and the pMDI, as indicated in the legends. Data points represent mean values (n=5); error bars indicate one standard deviation.

[2] = cited from earlier work
[3] = cited from earlier work; remark: listed apart in the source
[4] = pMDI with AEROCHAMBER Z-STAT PLUS

| reduction of deposition in the throat portion of the ACI ([1]; use of several of the chambers vs pMDI alone) | Compound | difference in fine particle dose (FPD, <4.7 μm) vs pMDI alone ([1]; pMDI with AEROCHAMBER MAX) [%] | difference in fine particle dose (FPD, <4.7 μm) vs pMDI alone [1, 4] | reduction in FPD (μg) as compared to the pMDI alone [1] | difference in fine particle dose (FPD, <4.7 μm) vs pMDI alone ([1]; pMDI with VORTEX) [%] | solubility in acetone [2] | solubility in diethyl ether ([2]; diethyl ether) | solubility in ethanol [2] | solubility in ethyl acetate ([2]; ethyl acetate) | solubility in glacial acetic acid ([2]; glacial acetic acid) | solubility in isopropanol [2] | solubility in methanol [2] | solubility in water [2] | solubility in chloroform ([2]; chloroform) | solubility in tetrahydrofuran ([2]; tetrahydrofuran) | partition coefficient between octanol and water [3] |
| --- | --- | --- | --- | --- | --- | --- | --- | --- | --- | --- | --- | --- | --- | --- | --- | --- |
|  | COc1ccc(CC(C)NCC(O)c2ccc(O)c(NC=O)c2)cc1.O.O.O=C(O)/C=C/C(=O)O (racemic) [formoterol fumarate, (±)2-hydroxy-5-[(1RS)-1-hydroxy-2-[[(1RS)-2-(4-methoxyphenyl)-1methylethyl]-amino]ethyl] formanilide fumarate dihydrate] | ≤ 15 | less than 5% | about 30% | ≤ 20 | practically insoluble | practically insoluble | sparingly soluble | practically insoluble | freely soluble | sparingly soluble | soluble | slightly soluble |  |  |  |
| about 90% | C[C@@H]1C[C@H]2[C@@H]3CCC4=CC(=O)C=C[C@]4(C)[C@@]3(Cl)[C@@H](O)C[C@]2(C)[C@@]1(OC(=O)c1ccco1)C(=O)CCl [mometasone furoate, 9,21-Dichloro-11(beta), 17-dihydroxy-16(alpha)-methylpregna-1,4-diene-3,20-dione 17-(2 furoate)] | ≤ 15 | less than 5% | about 30% | ≤ 20 | soluble |  | slightly soluble |  |  | slightly soluble | slightly soluble | practically insoluble | soluble | freely soluble | greater than 5000 |
